# Calls of active or inactive are those of the source. No cut-off for these calls is given here.
# Legend:
# [1] = tested on: HepG2; assay: Induction of apoptosis in human HepG2 cells assessed as necrotic cells level at 10 uM after 24 hrs by annexin V/propidium iodide double staining based flow cytometry; type: functional
# [2] = Binding affinity to fluorescently-labeled c-KIT1 G-quadruplex DNA (unknown origin) by thiazole-ornage dye based fluorescence intercalator displacement assay
# [3] = tested on: HepG2; assay: Cytotoxicity against human HepG2 cells after 24 hrs by MTT assay; conditions: HepG2, 24 h
# [4] = tested on: HepG2; assay: Induction of apoptosis in human HepG2 cells assessed as early apoptotic cells level at 5 uM after 24 hrs by annexin V/propidium iodide double staining based flow cytometry; type: functional
# [5] = Binding affinity to fluorescently-labeled c-KIT1 G-quadruplex DNA (unknown origin) assessed as change in melting temperature at 2 uM in presence of 5 uM c-KIT2 G-quadruplex DNA by FRET assay
# [6] = tested on: HepG2; assay: Cell cycle arrest in human HepG2 cells assessed as accumulation at G0/G1 phase at 2.5 uM after 12 hrs by propidium iodide staining based flow cytometry (reference value: 53.4%); type: functional
# [7] = Selectivity for fluorescently-labeled c-KIT1 G-quadruplex DNA (unknown origin) over fluorescently-labeled h-TELO G-quadruplex DNA (unknown origin)
# [8] = tested on: HepG2; assay: Cell cycle arrest in human HepG2 cells assessed as accumulation at S phase at 10 uM after 12 hrs by propidium iodide staining based flow cytometry (reference value: 19.10%); type: functional
# [9] = Selectivity for fluorescently-labeled c-KIT1 G-quadruplex DNA (unknown origin) over fluorescently-labeled c-KIT2 G-quadruplex DNA (unknown origin)
# [10] = tested on: HepG2; assay: Induction of apoptosis in human HepG2 cells assessed as necrotic cells level at 2.5 uM after 24 hrs by annexin V/propidium iodide double staining based flow cytometry; type: functional
# [11] = Binding affinity to fluorescently-labeled c-KIT1 G-quadruplex DNA (unknown origin) assessed as change in melting temperature at 2 uM in presence of 20 uM duplex DNA by FRET assay
# [12] = tested on: HepG2; assay: Induction of apoptosis in human HepG2 cells assessed as early apoptotic cells level at 10 uM after 24 hrs by annexin V/propidium iodide double staining based flow cytometry; type: functional
# [13] = tested on: HepG2; assay: Cell cycle arrest in human HepG2 cells assessed as accumulation at G2/M phase at 5 uM after 12 hrs by propidium iodide staining based flow cytometry (reference value: 25.2%); type: functional
# [14] = tested on: HepG2; assay: Cell cycle arrest in human HepG2 cells assessed as accumulation at subG0 phase at 10 uM after 12 hrs by propidium iodide staining based flow cytometry (reference value: 1.8%); type: functional
# [15] = tested on: HepG2; assay: Induction of apoptosis in human HepG2 cells assessed as late apoptotic cells level at 2.5 uM after 24 hrs by annexin V/propidium iodide double staining based flow cytometry; type: functional
# [16] = tested on: HepG2; assay: Cell cycle arrest in human HepG2 cells assessed as accumulation at G0/G1 phase at 10 uM after 12 hrs by propidium iodide staining based flow cytometry (reference value: […]); type: functional
# [17] = tested on: HepG2; assay: Induction of apoptosis in human HepG2 cells assessed as late apoptotic cells level at 10 uM after 24 hrs by annexin V/propidium iodide double staining based flow cytometry; type: functional
# [18] = Binding affinity to fluorescently-labeled c-KIT2 G-quadruplex DNA (unknown origin) by thiazole-ornage dye based fluorescence intercalator displacement assay
# [19] = tested on: HepG2; assay: Cell cycle arrest in human HepG2 cells assessed as accumulation at G0/G1 phase at 5 uM after 12 hrs by propidium iodide staining based flow cytometry (reference value: 53.4%); type: functional
# [20] = Selectivity for fluorescently-labeled c-KIT1 G-quadruplex DNA (unknown origin) over fluorescently-labeled c-MYC G-quadruplex DNA (unknown origin)
# [21] = tested on: HepG2; assay: Cell cycle arrest in human HepG2 cells assessed as accumulation at S phase at 5 uM after 12 hrs by propidium iodide staining based flow cytometry (reference value: 19.5%); type: functional
# [22] = Binding affinity to fluorescently-labeled c-MYC G-quadruplex DNA (unknown origin) by thiazole-ornage dye based fluorescence intercalator displacement assay
# [23] = Binding affinity to fluorescently-labeled c-KIT1 G-quadruplex DNA (unknown origin) assessed as change in melting temperature at 2 uM in presence of 5 uM c-MYC G-quadruplex DNA by FRET assay
# [24] = tested on: HepG2; assay: Cell cycle arrest in human HepG2 cells assessed as accumulation at G2/M phase at 10 uM after 12 hrs by propidium iodide staining based flow cytometry (reference value: […]); type: functional
# [25] = Binding affinity to fluorescently-labeled c-KIT1 G-quadruplex DNA (unknown origin) assessed as change in melting temperature at 2 uM in presence of 5 uM h-TELO G-quadruplex DNA by FRET assay
# [26] = tested on: HepG2; assay: Cell cycle arrest in human HepG2 cells assessed as accumulation at subG0 phase at 2.5 uM after 12 hrs by propidium iodide staining based flow cytometry (reference value: 1.8%); type: functional
# [27] = tested on: HepG2; assay: Induction of apoptosis in human HepG2 cells assessed as late apoptotic cells level at 5 uM after 24 hrs by annexin V/propidium iodide double staining based flow cytometry; type: functional
# [28] = tested on: HepG2; assay: Induction of apoptosis in human HepG2 cells assessed as early apoptotic cells level at 2.5 uM after 24 hrs by annexin V/propidium iodide double staining based flow cytometry; type: functional
# [29] = Binding affinity to fluorescently-labeled duplex DNA (unknown origin) by thiazole-ornage dye based fluorescence intercalator displacement assay
# [30] = Binding affinity to fluorescently-labeled c-KIT1 G-quadruplex DNA (unknown origin) assessed as change in melting temperature by FRET assay
# [31] = tested on: HepG2; assay: Cell cycle arrest in human HepG2 cells assessed as accumulation at subG0 phase at 5 uM after 12 hrs by propidium iodide staining based flow cytometry (reference value: 1.8%); type: functional
# [32] = Binding affinity to fluorescently-labeled c-KIT1 G-quadruplex DNA (unknown origin) assessed as change in melting temperature at 2 uM by FRET assay
# [33] = Binding affinity to fluorescently-labeled h-TELO G-quadruplex DNA (unknown origin) by thiazole-ornage dye based fluorescence intercalator displacement assay
# [34] = tested on: HepG2; assay: Cell cycle arrest in human HepG2 cells assessed as accumulation at G2/M phase at 2.5 uM after 12 hrs by propidium iodide staining based flow cytometry (reference value: 25.2%); type: functional
# [35] = tested on: HepG2; assay: Cell cycle arrest in human HepG2 cells assessed as accumulation at S phase at 2.5 uM after 12 hrs by propidium iodide staining based flow cytometry (reference value: 19.5%); type: functional
# [36] = tested on: HepG2; assay: Induction of apoptosis in human HepG2 cells assessed as necrotic cells level at 5 uM after 24 hrs by annexin V/propidium iodide double staining based flow cytometry; type: functional
smiles,measurement,setting,value
O=C(NCc1cn(-c2ccc(NC(=O)[C@@H]3CCCN3)cc2)nn1)c1cccc(C(=O)NCc2cn(-c3ccc(NC(=O)[C@@H]4CCCN4)cc3)nn2)n1,Activity,[1],85.8%
same,DC50,[2],0.47 µM
same,Kd,[2],0.74 µM
same,IC50,[3],7.42 µM
same,Activity,[4],0.2%
same,Activity,[5],inactive
same,Activity,[6],56.2%
same,Selectivity ratio,[7],15
same,Activity,[8],8.2%
same,Selectivity ratio,[9],30
same,Activity,[10],29.3%
same,Activity,[11],inactive
same,Activity,[12],7.3%
same,Activity,[13],24.4%
same,Activity,[14],7.4%
same,Activity,[15],3.9%
same,Activity,[16],65.8%
same,Activity,[17],6.7%
same,DC50,[18],9.5 µM
same,Kd,[18],22.7 µM
same,Activity,[19],55.5%
same,Selectivity ratio,[20],5
same,Activity,[21],14%
same,DC50,[22],11.3 µM
same,Kd,[22],3.8 µM
same,Activity,[23],inactive
same,Activity,[24],18.4%
same,Activity,[25],inactive
same,Activity,[26],3.3%
same,Activity,[27],2.6%
same,Activity,[28],0.6%
same,DC50,[29],> 25 µM
same,Activity,[30],Dose-dependent effect
same,Activity,[31],6.1%
same,deltaTm,[32],30.6 K
same,DC50,[33],7.3 µM
same,Kd,[33],11.6 µM
same,Activity,[34],26.7%
same,Activity,[35],13.8%
same,Activity,[36],38.6%

# — ChEMBL document CHEMBL3352632 (Bioorg Med Chem, 2014)
